Experimental data taken from US10392357B2, “Glucagon-like peptide 1 modulator and uses thereof” (Academia Sinica, priority 2015, dated 2019).

Key:
Type in all cases: cell-based
GLP-1R = biological target: T1, GLP-1R (UniProt P01275+P32301); assay: cell-based; design: Activity % of compound 1 (potentiation of GLP-1 induced cAMP production): concentration or dose not given beside the values; settings: for Activity % of compound 1 (potentiation of GLP-1 induced cAMP production): relative to compound 1 = 100; for effect on GLP-1R signaling (GLP-1 induced cAMP production): FIG. 1A to 1E
T1 construct: endogenous in cells; host or cells: RINm5F cells stably expressing the RG-cAMP BRET sensor
Experimental: Next day, cells were washed twice with 0.1 ml phenol red-free MEM containing 5 mM HEPES, and incubated in the same medium for 1 h. The medium was replaced with 90 μL the same medium containing 1 mg/ml BSA and 5 μM DeepBlueC. The whole plate was immediately loaded onto a SpectraMax Paradigm Detection Platform equipped with a Dual-Color luminescence detection cartridge and SoftMax Pro 6.2.2 (Molecular Devices, Sunnyvale, Calif.) to obtain the background BRET signal based on the sequential integration of the luminescence detected at 370-450 and 500-530 nm over 60-150 s. Each well was then stimulated by adding 10 μl of 10× solutions of peptide and lipids and 1 mg/ml BSA in phenol red-free MEM containing 5 mM HEPES, and BRET signals were obtained immediately under identical settings. The BRET ratio is the ratio of light emitted between 90 and 300 s at 500-530 nm to that emitted at 370-450 nm. […] The dose-response curve, maximal response, and concentration of peptide needed to yield half-maximal response (EC50) were obtained by nonlinear regression to fit the data to the agonist versus response equation using Prism software 5.0 (GraphPad, San Diego). Unless specified, all cAMP response data are the means±S.E. from three independent experiments with triplicate assays.

RINm5F cells = assay: GLP-1-elicited insulin release from RINm5F cells; settings: FIG. 4
H460 cells = assay: Cell viability test (PrestoBlue) in H460 cells; settings: 72-h treatment, FIG. 5; for cytotoxicity: test concentration 0.78 to 100 μM
Experimental: Cytotoxicity of H460 cells to various compounds was assessed using PrestoBlue® reagent, which was modified by the reducing environment of the viable cell and turns from blue to red in color. In brief, 3,000 H460 cells were seeded with 0.1 ml of RPMI 1640 medium in each well of a 96-well plate and incubated at 37° C. for 24 h before compound treatment. After a 72-h compound treatment, PrestoBlue™ cell viability reagent (Invitrogen) was added to each well according to the manufacturer's protocol. The plates were further incubated in the dark at 37° C. in 5% CO2 for 10 min, and absorbance of all wells was read at both the 570- and 600-nm wavelengths using automatic enzyme-linked immunosorbent assay plate reader (Molecular Devices, Union City, Calif.). The raw data were normalized and corrected according to the manufacturer's protocol. All samples were tested in triplicate, and each test was repeated three times. Cell viability was calculated using the following formula: percent of 100×(average corrected values of compound treated cells)/(average corrected values of untreated cells).

GLP-1R-V2R chimeric = biological target: T2, GLP-1R-V2R chimeric (Homo sapiens, UniProt P01275+P43220); assay: Receptor endocytosis assay in U2OS cells co-expressing GLP-1R-V2R and β-arrestin2:GFP
T2 construct: the first 440 amino acids of the GLP-1R (Met-1 to Thr-440); vasopressin V2 receptor C-terminal tail, last 29 amino acids, Ala-343 to Ser-371 (AVPR2); expressed in transfected cells; host or cells: U2OS osteosarcoma cells stably expressing beta-arrestin2:GFP (Norak Biosciences), transfected with pcDNA3-GLP-1R-V2R
T2 sequence (P43220 with tags, fused parts or gaps limits assumed): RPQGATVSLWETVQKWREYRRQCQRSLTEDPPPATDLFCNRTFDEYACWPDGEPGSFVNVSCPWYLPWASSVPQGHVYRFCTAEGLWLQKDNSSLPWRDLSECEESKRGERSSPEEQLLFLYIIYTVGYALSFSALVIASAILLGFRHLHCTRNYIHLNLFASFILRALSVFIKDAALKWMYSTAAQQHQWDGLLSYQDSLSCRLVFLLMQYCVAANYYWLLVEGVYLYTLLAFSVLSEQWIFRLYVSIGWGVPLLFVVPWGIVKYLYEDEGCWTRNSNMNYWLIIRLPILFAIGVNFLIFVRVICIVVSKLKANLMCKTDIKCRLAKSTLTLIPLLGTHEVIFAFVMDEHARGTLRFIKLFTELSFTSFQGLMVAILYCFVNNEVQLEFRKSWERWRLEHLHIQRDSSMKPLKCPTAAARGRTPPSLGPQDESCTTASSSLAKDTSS
T2 sequence (P01275 98-127 limits assumed, stated change not applied): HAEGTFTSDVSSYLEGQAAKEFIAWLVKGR
Excerpt: U2OS osteosarcoma cell line stably expressing a β-arrestin2:GFP fusion protein was obtained from Norak Biosciences. The pcDNA3 GLP-1R-V2R chimeric construct contains the first 440 amino acids of the GLP-1R (Met-1 to Thr-440) fused to the last 29 amino acids of the vasopressin V2 receptor (Ala-343 to Ser-371) and separated by two alanine residues as linker. […]
Images were acquired on an XL model of the ImageXpress® Micro System (Molecular Devices, Sunnyvale, Calif.) and analyzed with MetaXpress High-Content Image Acquisition and Analysis Software (Molecular Devices, Sunnyvale, Calif.) using the granularity and variable grain analysis modules. […] The number of spots, total area covered by spots, average and integrated fluorescence intensity of the spots, and nuclear area and fluorescence intensity were logged into the database. Data from abnormal cells for which the values were above threshold (abnormal: average nuclear staining intensity <500; integrated fluorescence intensity of area covered by spots <150) were ruled out using Acuity Xpress, followed by selection of the measurement method, spot fluorescence integrated intensity to calculate the average number of spots per nucleus. […]

T1 sequence (P32301 22-463): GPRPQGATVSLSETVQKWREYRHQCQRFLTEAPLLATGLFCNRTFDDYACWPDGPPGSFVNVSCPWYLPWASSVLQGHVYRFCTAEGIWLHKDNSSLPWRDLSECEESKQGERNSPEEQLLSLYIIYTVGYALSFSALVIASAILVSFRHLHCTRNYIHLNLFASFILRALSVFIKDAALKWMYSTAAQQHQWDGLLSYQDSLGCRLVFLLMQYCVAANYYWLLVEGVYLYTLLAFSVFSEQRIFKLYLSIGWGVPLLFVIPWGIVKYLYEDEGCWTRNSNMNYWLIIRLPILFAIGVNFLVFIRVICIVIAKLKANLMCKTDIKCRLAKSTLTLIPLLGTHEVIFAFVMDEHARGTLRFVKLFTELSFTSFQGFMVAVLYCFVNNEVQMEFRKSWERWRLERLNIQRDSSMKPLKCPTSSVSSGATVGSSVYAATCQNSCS
T1 sequence (P01275 98-127 limits assumed): as the sequence (P01275 98-127 limits assumed, stated change not applied) above

Row | Compound | Activity % of compound 1 (potentiation of GLP-1 induced cAMP production) (GLP-1R) | also measured
1 | CC/C=C\C/C=C\C/C=C\CCCCCCCC(=O)O [α-linolenic acid] | 15% | –
2 | CCCCCCCC/C=C\CCCCCCCC(=O)O [Oleic acid] | 35% | –
3 | CC/C=C\C/C=C\C/C=C\C/C=C\C/C=C\C/C=C\CCC(=O)O [Docosahexaenoic acid] | 60% | –
4 | CC/C=C\C/C=C\C/C=C\C/C=C\C/C=C\C/C=C\CCC(=O)NCCO [Docosahexaenoyl ethanolamide] | 20% | –
5 | CCCCCC/C=C/C=C\CCCCCCCC(=O)O [9(Z),11(E)-conjugated linoleic acid] | 25% | –
6 | CCCCCC/C=C/C=C/CCCCCCCC(=O)O [9(E),11(E)-conjugated linoleic acid] | 30% | –
7 | CCCCC/C=C\C/C=C\CCCCCCCC(=O)OC [Methyl cis,cis-9,12-octadecadienoate] | 15% | –
8 | CC/C=C\C/C=C\C/C=C\C/C=C\C/C=C\CCCC(=O)NCCO [Eicosapentaenoyl ethanolamide] | 90% | Activity % of compound 1 (potentiation of GLP-1 induced cAMP production) (GLP-1R; listed as eicosanpentaenoyl ethanolamide): about 90%
9 | CCC=CCC=CCC=CCC=CCC=CCC=CCCC(=O)N[C@H]1C(=O)O[C@@H](C)[C@@H]1C [Compound 12] | – | effect on GLP-1R signaling (GLP-1 induced cAMP production) (GLP-1R; RINm5F cells): enhance the GLP-1R signaling
10 | CC/C=C\C/C=C\C/C=C\C/C=C\C/C=C\CCCC(=O)NCCc1c[nH]c2ccc(O)cc12 [Eicosapentaenoyl serotonin] | 20% | –
11 | GLP-1(7-36)-amide | – | insulin release from RINm5F cells (RINm5F cells; 2 nM GLP-1 alone): stimulated a low level of insulin release
12 | CC/C=C\C/C=C\C/C=C\C/C=C\C/C=C\C/C=C\CCC(=O)NCCc1c[nH]c2ccc(O)cc12 [Docosahexaenoyl serotonin] | 15% | –
13 | CCCCCCCC/C=C\CCCCCCCC(=O)OC(CO)CO [2-oleoylglycerol] | – | cytotoxicity (H460 cells): did not exhibit detectable cytotoxicity
14 | N.N.[Cl][Pt][Cl] [cisplatin] | – | IC50 (H460 cells): 6.7 µM
15 | CC/C=C\C/C=C\C/C=C\C/C=C\C/C=C\CCCC(=O)O [Eicosapentaenoic acid] | 60% | –
16 | CC/C=C\C/C=C\C/C=C\CCCCCCCC(=O)OC [linolenic acid methyl ester] | 15% | –
17 | CCCCC/C=C\C=C\CCCCCCCCC(=O)O [10(E),12(Z)-conjugated linoleic acid] | 30% | –

Row | Compound | Activity % of compound 1 (potentiation of GLP-1 induced cAMP production) (GLP-1R) | also measured
18 | CCCCCC/C=C/CCCCCCCCCC(=O)O [11-trans-octadecenoic acid] | 10% | –
19 | CCCCC/C=C\C/C=C\C/C=C\CCCCC(=O)OC [Methyl γ-linolenate] | 20% | –
20 | C[C@@H]([C@H](C)O)[C@H](N)C(=O)O [4-hydroxyisoleucine] | <10% | –
21 | CC/C=C\C/C=C\C/C=C\CCCCCCCC(=O)N[C@@H](Cc1ccc(O)cc1)C(=O)O [N-(α-linolenoyl) tyrosine] | 70% | –
22 | CCCCC/C=C\C/C=C\CCCCCCCC(=O)OCC [Ethyl linoleate] | 60% | –
23 | CC/C=C/C/C=C/C/C=C/C/C=C/C/C=C/C/C=C/CCC(=O)NCC(=O)O [Docosahexaenoyl glycine] | 15% | –
24 | CCCCC/C=C/C/C=C/CCCCCCCC(=O)OC [Methyl linolelaidate] | 30% | –
25 | CCCCC/C=C\C/C=C\CCCCCCCC(=O)NCCO [Linoleoyl ethanolamide] | 90% | Activity % of compound 1 (potentiation of GLP-1 induced cAMP production) (GLP-1R; listed as linoleoyl ethanolamide): about 90%
26 | Cis-octadecenoic acid | 25% | –
27 | CCCCC/C=C/C/C=C/CCCCCCCC(=O)OCC(O)CO (stereo not shown) [1-monolinolein] | 80% | –
28 | CCCCCCCC/C=C\CCCCCCCC(=O)NCCO [oleoylethanolamide] | – | cytotoxicity (H460 cells): did not exhibit detectable cytotoxicity
29 | CCCCC/C=C/C/C=C/CCCCCCCC(=O)O [Linoelaidic acid] | 30% | –
30 | CCCCC/C=C\C/C=C\CCCCCCCC(=O)NCC(=O)O [Linoleoyl glycine] | 80% | –
31 | CCCCC/C=C\C/C=C\C/C=C\CCCCC(=O)OC [γ-linoleic acid methyl ester] | 25% | –
32 | CCCCC/C=C\C/C=C\CCCCCCCC(=O)OC [linoleic acid methyl ester] | 30% | –
33 | CCCCC/C=C\C/C=C\CCCCCCCC(=O)NC1C(=O)OC(C)C1C (stereo not shown) [Compound 1, (9Z,12Z)-N-(4,5-Dimethyl-2-oxotetrahydrofuran-3-yl)octadeca-9,12-dienamide] | 100% | relative potency among the compounds of formula (I) tested in example 2 (GLP-1R; RINm5F cells): most potency; effect on GLP-1R signaling (GLP-1 induced cAMP production) (GLP-1R; RINm5F cells): enhance the GLP-1R signaling; shift of the GLP-1 dose-response curve (cAMP production) to the left (GLP-1R; compound 1 increased from 0.8 μM to 26 μM, FIG. 2 panel A): > 10 fold; EC50 (GLP-1R; dose dependent and saturable, FIG. 2 panel B): 3.7 µM; EC50 (GLP-1R-V2R chimeric): 0.87 µM; effect on insulin release elicited by GLP-1 (RINm5F cells; 7.7 μM compound added to 2 nM GLP-1): significantly enhanced; insulin release by compound alone (RINm5F cells; compound alone, without GLP-1): did not trigger any insulin release; cytotoxicity (H460 cells): did not exhibit detectable cytotoxicity
